Measured values reported in US20060173171A1, “Techniques and compositions for diagnosis and treatment of cancer (muci)” (priority 2003, published 2006).

System: ligands in breast tumor cell lysates
Assay: Ligand fishing from cell lysates with PSMGFR peptide on NTA-Ni beads, silver-stained gel
Assay type: binding, human
Description: In an effort to identify ligands to the MUC1 receptor, synthetic, His-var-PSMGFR peptides, […] (SEQ ID NO: 2), which is representative of the portion of the MUC1 receptor, that remains attached to the cell surface after cleavage of the interchain binding region, were loaded onto NTA-Ni beads (cat. #1000630; available from Qiagen GmbH, Germany) and incubated with cell lysates in the presence (FIG. 9) or absence (FIG. 10) of the protease inhibitor PMSF (phenyl methyl sulfonyl fluoride). Lysates from T47D cells were used because this breast tumor cell line is known to overexpress MUC1 and MUC1 ligand(s). T47D cells were cultured then sonicated for 1 minute to lyse the cells. Lysates were mixed with the PSMGFR peptide-presenting beads and incubated on ice with intermittent mixing for 1 hr. As a negative control, an irrelevant peptide, HHHHHHGEFTGTYITAVT (SEQ ID NO: 13), was attached to NTA-Ni beads and treated identically. Both sets of beads were washed 2× with phosphate buffer pH 7.4. Bound protein species were eluted by 3 additions of 100 uL of phosphate buffer that also contained 250 mM imidazole. For both the peptides, a portion of the first elution was removed and reserved to run as a separate sample, while the remainder was combined with the other 2 elutions and concentrated by TCA (tri-chloro acetic acid)-precipitation (Chen, L. et al., Anal. Biochem. Vol 269; pgs 179-188; 1999). […]

Sequence: GTINVHDVETQFNQYKTEAASPYNLTISDVSVSDVPFPFSAQSGAHHHHHH [PSMGFR peptide]
- protein species bound from T47D lysate (in the absence of PMSF, FIG. 10): bound distinguishably to one peptide
- protein species bound from T47D lysate (in the presence of PMSF, FIG. 9): bound distinguishably to three peptides
